Measured values: patent EP0610377B1, “TRI-SUBSTITUTED TETRAHYDROFURAN ANTIFUNGALS” (SCHERING CORPORATION, priority 1991, dated 1993)

Key:
Format in all cases: in vivo
[1] = test system: Aspergillus flavus; assay: Aspergillus flavus pulmonary infection model in compromised mice, oral treatment; details: for %SURVIVAL / %ANIMALS NEG: 18 days post infection; for %SURVIVAL: compromised CF-1 mice; for %ANIMALS NEG: negative = <10 colonies
From the text: The in vivo oral antifungal activity of the compounds of Example 23-26 were compared to those of itraconazole, fluconazole and saperconazole in an Aspergillus pulmonary infection model in mice. The procedure of David Loebenberg et al. entitled "Sch 42427, The Active Enantiomer of Antifungal agent Sch 39304: In Vitro and In Vivo Activity" Antimicrobial Agents and Chemotherapy (1992), 36 498-501 was used. The Aspergillus flavus pulmonary model was run in the following manner Male, CF-1 mice weighing 20 grams were compromised with cortisone acetate (100 mg/kg), administered subcutaneously, once daily for 3 days. In addition, to prevent bacterial disease, tetracycline HCL (300 mg/1) was added to the drinking water and given ad libitum. On day 2 of compromising, mice were infected in an inhalation chamber, first described by Piggot and Emmons in 1960 and modified by us. The chamber is a 1 liter pyrex, thick-walled flask with 8 tubular side-arms that extend into the flask. Each side-arm is a pyrex tube of 14 cm length, constricted to a 1 cm opening inside the flask. The bottom of the flask was covered with a malt extract agar medium on which a sporulating culture of A. flavus ATCC 24133 was grown for 13 days at room temperature. The top of the flask was closed with a #10 stopper through which passed a glass tube attached by rubber tubing to a 60 mL syringe. Mice were placed in each of the side arms and pushed to the bottoms so that their nares extended beyond the open end of the tube and over the agar. Cotton plugs were then inserted behind the mice to hold them in place. By pumping the 60 mL syringe twice, air was forced over the culture and produced a cloud of spores. Mice were exposed to the spore cloud for one minute. Within 15-30 minutes after exposure, a number of mice were sacrificed and lung tissue samples homogenized for culture to determine the number of inhaled conidia. Oral treatment began 24 h post-infection with doses of 5 to 250 mg of drug/kg in ethanol; vehicle (115 ml of Emulphor EL-719P, GAF, Wayne, NJ; and 5 ml of 20% w/v lactic acid per liter of water), 10:90 v/v, once daily for 4 days.
The procedure of Example 31 was used to compare the in vivo oral antifungal activity of (±)-5R/S-(cis)-4-[4-[4-[4-[[5-(2,4-difluorophenyl)-5-(1H-1,2,4-triazol-1-ylmethyl) tetrahydrofuran-3-yl]methoxy-phenyl-1-piperazinyl]phenyl]-2,4-dihydro-2[(R/S)-(1-methylpropyl)]-3H-1,2,4-triazol-3-one with (±)-2R/S-(cis)-1-[4-[[2-(2,4-difluorophenyl)-2-(1H-1,2,4-triazol-1-ylmethyl) tetrahydro-4-furanyl]methoxy]phenyl]-4-(1-methylethyl)piperazine of Example 68 of USP 5,039,676 in an Aspergillus pulmonary infection model described in Example 31. […]
The procedures of Examples 31 and 34 were used.

[2] = test system: Candida; assay: Candida vaginal infection in a hamster model; details: result in words
[3] = test system: C. albicans C-65; assay: Candida systemic model in normal and compromised CF1 mice infected with C. albicans C-65, oral treatment; details: normal and compromised mice; result in words (text refers to Tables II and V)
Description: (§1) The compounds of Examples 23-26 and itraconazole, fluconazole, and saperconazole were tested for in vivo oral antifungal activity in a Candida systemic model using CF1 male mice , average weight 20 g, Harlan Sprague Dawley, Inc., Indianapolis, Ind. infected by IV injection into the tail vein of C. albicans C-43 (5 million CFUs). The drugs were dissolved in polyethylene glycol-200 (PEG-200) and tested by orally administering 50, 25 and 10 mpk of each drug 4 hours post infection and once daily for 3 more days. Oral efficacy was measured after four (4) days by percent survival and by the number of organisms remaining in the kidneys i.e., the Colony Forming Units (CFUs). The mice were sacrificed and the kidneys of individual mice were homogenized in sterile saline, diluted and spread onto Mycosel agar. Colony counts were determined after 48 hours at 37°C. For calculation of geometric means, mice that died during the experiment were considered to have 10^9 CFUs/kidneys (based on numerous previous experiments).
The compounds of Examples 23-24 and itraconazole, fluconazole, were tested for in vivo oral antifungal anctivity in a Candida systemic model using normal and compromised CF1 mice infected with C. albicans C-65 (5 million CFUs). The procedure of Example 33 was followed. The drugs were dissolved in polyethylene glycol-200 ("PEG-200) at room temperature and tested by orally administering 100, 50, 25, 10 and 1 mpk of each drug. Oral efficacy was measured by percent survival and by the number of organisms remaining in the kidneys (CFUs) after four days. […] The pharmaceutical composition of the preferred compound of formula IIb of Eample 24 in hydroxypropyl beta cyclodextrin ("HPβCD") having 7.4 hydroxypropyl groups per HPβCD (obtained from Pharmatec, Inc., Alachua, FL 32615) was prepared by admixing the appropriate amount of the compound IIa with a 40% (w/v) solution of HPβCD (4 g of HPβCD per 10 mL of purified water). Gentle heating was used to form a clear solution. For the 10 mpk dose, 12 mg of Ha was added to 6 mL of a 40% w/v solution of HPβCD. For dilutions, sterile water was added to the solution with mixing. The pharmaceutical composition of itraconazole and the Pharmatec HPβCD described above was prepared as follows. Propylene glycol (10 mL) was admixed with 0.95 mL of concentrated HCI at 40°-45°C with stirring. Itraconazole (2.5 g) was added thereto and stirring was continued until homogeneous. The mixture so formed was cooled to 20° to 30°C and admixed with a solution of 60 g of HPβCD in 40 mL of purified water to form a clear solution. The pH was adjusted to a value of 1.9-2.1 with 10N NaOH and sufficient purified water added (with mixing) to a final volume of 100 mL. For dilutions, sterile water was added to the itraconazole - HPβCD.

[4] = test system: Aspergillus flavus; assay: Aspergillus flavus pulmonary infection model in compromised mice, oral treatment; details: 33 mg/kg PO [3RX/DAY] for 4 days, 18 days post infection
[5] = test system: C. albicans C-43; assay: Candida systemic model in CF1 mice infected IV with C. albicans C-43, oral treatment; details: for %SURVIVAL: day 4 post-infection; for CFUs (GM): day 4, geometric mean of the logarithms of CFU remaining in the kidneys (dead mice counted as 10^9)
Description: as §1, with “The drugs were dissolved in polyethylene glycol-200 (PEG-200) and tested by orally administering 50, 25 and 10 mpk of each drug 4 hours post infection and once daily for 3 more days.” left out

[6] = 33 mg/kg PO once a day for 4 days
[7] = 66 mg/kg PO once a day for 4 days
[8] = 100 mg/kg PO once a day for 4 days

SMILES	oral activity against Aspergillus flavus pulmonary infections compared with itraconazole, fluconazole and saperconazole ([1]; in vivo mouse model, PO, result in words)	activity against a Candida vaginal infection compared with itraconazole and saperconazole [2]	activity against systemic candidiasis compared with itraconazole and saperconazole [3]	%SURVIVAL [1, 6] [%]	%ANIMALS NEG [1, 6] [%]	%SURVIVAL [1, 7] [%]	%ANIMALS NEG [1, 7] [%]	%SURVIVAL [1, 8] [%]	%ANIMALS NEG [1, 8] [%]	%SURVIVAL ([4]; compromised CF-1 mice) [%]	%ANIMALS NEG ([4]; negative = <10 colonies) [%]	%SURVIVAL ([5]; 10 MPK PO in PEG-200, 1 a day x 4 days) [%]	CFUs (GM) ([5]; 10 MPK PO in PEG-200)	%SURVIVAL ([5]; 25 MPK PO in PEG-200, 1 a day x 4 days) [%]	CFUs (GM) ([5]; 25 MPK PO in PEG-200)	%SURVIVAL ([5]; 50 MPK PO in PEG-200, 1 a day x 4 days) [%]	CFUs (GM) ([5]; 50 MPK PO in PEG-200)
CCC(CC)n1ncn(-c2ccc(N3CCN(c4ccc(OC[C@@H]5CO[C@@](Cn6cncn6)(c6ccc(F)cc6F)C5)cc4)CC3)cc2)c1=O [IIc]	more active orally	more active	more active														
CC[C@@H](C)n1ncn(-c2ccc(N3CCN(c4ccc(OC[C@H]5CO[C@](Cn6cncn6)(c6ccc(F)cc6F)C5)cc4)CC3)cc2)c1=O [Example 26, (+)-[(5S)-cis]-4-[4-[4-[4-[[5-(2,4-Difluorophenyl)-5-(1H-1,24-triazol-1-ylmethyl)tetrahydrofuran-3-yl]methoxy]phenyl]-1-piperazinyl]phenyl]-2,4-dihydro-2-[(1R)-(1-methylpropyl)]-3H-1,2,4-triazol-3-one]				0	0	0	0	20	0	0	0	0	9.00	0	9.00	20	7.84
